Where “and” joins values, the source holds several entries; their conditions need not be identical. Equal values may be shown once.
Experiments:
[1] = Heart and liver tissue levels of active triphosphate 4 hours after oral Compound 1-A, monkey; format: in vivo; settings: 4 hours after single oral dose
Experimental: High levels of the active TP were measured in the liver of all species tested.

GT1 HCV = test: Single ascending dose study of Compound 1-A in GT1-HCV infected patients (Part B); format: in vivo, human; settings: for Mean Max Reduction of HCV RNA from baseline: GT1b HCV patients
Experimental: Subjects in Part B received a single dose of Compound 1-A in the fasting state. Patients were confined to the clinic from Day −1 to Day 6.
Part B was initiated after the safety (through Day 5) and plasma pharmacokinetic (through 24 h) data review from Cohort 3a in Part A. Available safety data (through Day 5) and pharmacokinetic data (through 24 h) was reviewed for the first cohort in Part B (Cohort 1b) before enrolling subsequent Part B cohorts. Subsequent Part B cohorts were only dosed following review of available safety and pharmacokinetic data from the respective doses in Part A as well as available safety (through Day 5) from the prior Part B cohorts.
Patients infected with HCV were treatment-naïve, non-cirrhotic GT1-infected subjects with a viral load of ≥5 log10 IU/mL.
Baseline was defined as the mean of Day −1 and Day 1 (pre-dose). […] The mean maximum HCV RNA reduction 24 hours post-dose following a single 300 mg dose was 1.7 log10 IU/mL and this compares to a −2 log 10 IU/mL reduction after 1 day of 400 mg of sofosbuvir monotherapy in GT1a HCV-infected subjects. The mean maximum HCV RNA reduction 24 hours post-dose following a single 100 mg dose was 0.8 log10 IU/mL. The mean 10 maximum HCV RNA reduction was 2.2 log10 IU/mL following a single 400 mg dose.

[2] = Plasma levels of Compound 1 and metabolites after single oral dose of Compound 1-A, dog; format: in vivo
[3] = Solubility in biorelevant test medias (water, SGF, FaSSIF, FeSSIF); settings: for Appearance: solubility test; for Descriptive term: solubility
[4] = Single ascending dose study of Compound 1-A in healthy volunteers (Part A); format: in vivo, human
Experimental: Compound 1-A was tested in a single ascending dose (SAD) study to measure its safety, tolerability, and pharmacokinetic in healthy subjects (Part A). Part A was a randomized, double-blind, placebo-controlled SAD study. Healthy subjects in Part A received a single dose of Compound 1-A or placebo in the fasting state. Subjects were confined to the clinic from Day −1 to Day 6.
Dosing in each cohort was staggered such that 2 subjects (1 active:1 placebo) were evaluated for 48 hours after dosing before the remainder of the cohort was dosed. Each cohort received Compound 1-A in ascending order. Dosing of sequential cohorts occurred based on review of available safety data (through Day 5) and plasma pharmacokinetic data (through 24 h) of the prior cohort.
As pharmacokinetic and safety data emerged from prior cohorts, doses evaluated in Cohorts 3a-4a were adjusted by increments no more than 100 mg.
Healthy volunteers in the Part A portion of the study were male and female subjects between the ages of 18 and 65. Active and placebo recipients were pooled within each Part A cohort to preserve the study blind.

[5] = Chemical stability of Compound 1-A at 25° C./60% RH and 40° C./75% RH over 6 months; format: physicochemical; settings: for Increase of percent of water: over 6 months
Experimental: The container closure system for the study was a combination medicinal valve bag with a pharmaceutical laminated film over the pouch and desiccant silica gel between the two layers. […] Bags were then stored at 25° C./60% RH (relative humidity) and 40° C./75% RH (relative humidity). Organic purity, water content, ^1HNMR, DSC and Raman were measured at Time 0, Month 1, Month 2, Month 3 and Month 6.
The sample was dissolved in acetonitrile—water (90:10) (v/v). The gradient method is shown below.

[6] = Dog, 30 mg/kg single oral dose, plasma
[7] = 25° C., Month 1, compared with Day 0
[8] = 25° C., Month 2, compared with Day 0
[9] = 25° C., Month 3, compared with Day 0
[10] = 25° C., Month 6, compared with Day 0
[11] = 40° C., Month 1, compared with Day 0
[12] = 40° C., Month 2, compared with Day 0
[13] = 40° C., Month 3, compared with Day 0
[14] = 40° C., Month 6, compared with Day 0

Compound: CNc1nc(N)nc2c1ncn2[C@@H]1O[C@H](CO[P@@](=O)(N[C@@H](C)C(=O)OC(C)C)Oc2ccccc2)[C@@H](O)[C@@]1(C)F [Compound 1-A, isopropyl ((S)-(((2R,3R,4R,5R)-5-(2-amino-6-(methylamino)-9H-purin-9-yl)-4-fluoro-3-hydroxy-4-methyltetrahydrofuran-2-yl)methoxy) (phenoxy)phosphoryl)-L-alaninate hemisulfate]
- active TP (metabolite 1-6) level in heart [1]: unquantifiable levels
- active TP (metabolite 1-6) level in liver [1]: High levels
- mean maximum HCV RNA reduction (GT1 HCV; 24 hours post-dose, single 100 mg dose): 0.8 log10 IU/mL
- mean maximum HCV RNA reduction (GT1 HCV; 24 hours post-dose, single 300 mg dose, GT1b): 1.7 log10 IU/mL
- Mean Max Reduction of HCV RNA from baseline (GT1 HCV; single dose, Compound 1-A equivalent of 92 mg Compound 1): 0.8 log10 IU/ml
- Mean Max Reduction of HCV RNA from baseline (GT1 HCV; single dose, Compound 1-A equivalent of 275 mg Compound 1): 1.7 log10 IU/ml
- Mean Max Reduction of HCV RNA from baseline (GT1 HCV; single dose, Compound 1-A equivalent of 368 mg Compound 1): 2.2 log10 IU/ml
- Mean Max Reduction of HCV RNA from baseline (GT1 HCV; single dose, Compound 1-A equivalent of 550 mg Compound 1): 2.3 log10 IU/ml
- intensity of adverse effects (GT1 HCV; Part B): mild to moderate
- serious adverse events (GT1 HCV; Part B, GT1-HCV infected patients, single dose): No serious adverse events
- mean maximum HCV RNA reduction (GT1 HCV; single 400 mg dose): 2.2 log10 IU/mL
- individual maximum HCV RNA reductions (GT1 HCV; single 600 mg dose, non-cirrhotic GT1b): 2.1 log10 IU/mL and 2.3 log10 IU/mL and 2.6 log10 IU/mL
- mean maximum HCV RNA reduction (GT1 HCV; single 600 mg dose, non-cirrhotic GT1b (n=3)): 2.3 log10 IU/mL
- time within which the parent is metabolized (GT1 HCV; single oral dose of Compound 1-A, plasma): ≤ 8 h
- Compound 1 Cmax [2, 6]: 1530 ng/mL
- Tmax [2, 6]: 15 to 60 min
- Compound 1 Tmax ([2]; Dog, 100 mg/kg single oral dose, plasma): 30 to 60 min
- vomiting (animals affected) ([2]; dogs, high dose group): 5/5
- Appearance ([3]; FaSSIF): Turbid
- Appearance ([3]; FeSSIF): Turbid
- Appearance ([3]; SGF): Turbid
- Appearance ([3]; Water): Turbid
- Descriptive term ([3]; FaSSIF): Slightly
- Descriptive term ([3]; FeSSIF): Slightly
- Descriptive term ([3]; SGF): Soluble
- Descriptive term ([3]; Water): Soluble
- intensity of adverse effects [4]: mild to moderate
- serious adverse events ([4]; healthy subjects, single dose): No serious adverse events
- Maximum Impurity Percent ([5]; 25° C., Day 0): 0.12%
- Percent Purity ([5]; 25° C., Day 0): 99.82%
- Percent Water ([5]; 25° C., Day 0): 1.2%
- Maximum Impurity Percent ([5]; 25° C., Month 1): 0.12%
- Percent Purity ([5]; 25° C., Month 1): 99.77%
- Percent Water ([5]; 25° C., Month 1): 1.9%
- DSC [5, 7]: The same
- Raman [5, 7]: The same
- ^1HNMR [5, 7]: The same
- Maximum Impurity Percent ([5]; 25° C., Month 2): 0.12%
- Percent Purity ([5]; 25° C., Month 2): 99.75%
- Percent Water ([5]; 25° C., Month 2): 1.8%
- DSC [5, 8]: The same
- Raman [5, 8]: The same
- ^1HNMR [5, 8]: The same
- Maximum Impurity Percent ([5]; 25° C., Month 3): 0.12%
- Percent Purity ([5]; 25° C., Month 3): 99.75%
- Percent Water ([5]; 25° C., Month 3): 1.8%
- DSC [5, 9]: The same
- Raman [5, 9]: The same
- ^1HNMR [5, 9]: The same
- Maximum Impurity Percent ([5]; 25° C., Month 6): 0.13%
- Percent Purity ([5]; 25° C., Month 6): 99.74%
- Percent Water ([5]; 25° C., Month 6): 1.8%
- DSC [5, 10]: The same
- Raman [5, 10]: The same
- ^1HNMR [5, 10]: The same
- Increase of percent of water ([5]; 25° C.): approximately 0.6%
- Maximum Impurity Percent ([5]; 40° C., Day 0): 0.12%
- Percent Purity ([5]; 40° C., Day 0): 99.82%
- Percent Water ([5]; 40° C., Day 0): 1.2%
- Maximum Impurity Percent ([5]; 40° C., Month 1): 0.12%
- Percent Purity ([5]; 40° C., Month 1): 99.71%
- Percent Water ([5]; 40° C., Month 1): 2.0%
- DSC [5, 11]: The same
- Raman [5, 11]: The same
- ^1HNMR [5, 11]: The same
- Maximum Impurity Percent ([5]; 40° C., Month 2): 0.12%
- Percent Purity ([5]; 40° C., Month 2): 99.63%
- Percent Water ([5]; 40° C., Month 2): 1.9%
- DSC [5, 12]: The same
- Raman [5, 12]: The same
- ^1HNMR [5, 12]: The same
- Maximum Impurity Percent ([5]; 40° C., Month 3): 0.12%
- Percent Purity ([5]; 40° C., Month 3): 99.58%
- Percent Water ([5]; 40° C., Month 3): 1.9%
- DSC [5, 13]: The same
- Raman [5, 13]: The same
- ^1HNMR [5, 13]: The same
- Maximum Impurity Percent ([5]; 40° C., Month 6): 0.14%
- Percent Purity ([5]; 40° C., Month 6): 99.30%
- Percent Water ([5]; 40° C., Month 6): 1.9%
- DSC [5, 14]: The same
- Raman [5, 14]: The same
- ^1HNMR [5, 14]: The same
- Increase of percent of water ([5]; 40° C.): approximately 0.7%
